Source: patent publication US9187472B2 (AbbVie Inc., priority 2012, dated 2015)

How the values were obtained:
[1] = biological target: NAMPT (human, recombinant, C-terminally His-tagged) (Homo sapiens, UniProt P43490); experiment: Time-Resolved Fluorescence Resonance Energy Transfer (TR-FRET) Binding Assay of NAMPT; settings: without substrates; 6.8 nM NAMPT, 200 nM probe, 3 hours equilibration
Summary of the method: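 A TR-FRET probe-displacement assay used 6.8 nM His-tagged recombinant human NAMPT, 200 nM Oregon Green 488-labelled nicotinamide-competitive probe and 1 nM Tb-anti-His antibody. Buffer was HEPES pH 7.5 with NaCl, MgCl2, DTT and glycerol, plus 2% DMSO, equilibrated 3 h at room temperature. Em520/Em495 ratios, normalized to controls, gave IC50 by four-parameter logistic fit.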

NAMPT = NAMPT (Homo sapiens, UniProt P43490); experiment: TR-FRET Binding Assay of NAMPT with PRPP; settings: with 200 μM PRPP and 2.5 mM ATP; 2 nM NAMPT, 2 nM probe, 16 hours equilibration
Summary of the method: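 Human NAMPT (2 nM) with 2 nM probe and 1 nM Tb-anti-His antibody, plus 200 μM PRPP and 2.5 mM ATP, 2% DMSO. TR-FRET read after 16 h equilibration, permitting possible enzymatic modification of test compounds; data processing as for the substrate-free format.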

PC3 cells = experiment: NAMPT Cell Proliferation Assay; type: cell-based; settings: Homo sapiens, PC-3, 120 h, 5 days incubation, cell viability by Cell Titer Glo
Summary of the method: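 Seed PC3 at 500 cells/well (RPMI, 10% HI-FBS), attach overnight; add compound, 10-fold series 10 μM → 1×10^−5 μM; incubate 5 d, 37° C/5% CO2; luminescent viability readout; fit % inhibition sigmoidally for IC50.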

Sequence of NAMPT (human, recombinant, C-terminally His-tagged) (P43490 whole entry): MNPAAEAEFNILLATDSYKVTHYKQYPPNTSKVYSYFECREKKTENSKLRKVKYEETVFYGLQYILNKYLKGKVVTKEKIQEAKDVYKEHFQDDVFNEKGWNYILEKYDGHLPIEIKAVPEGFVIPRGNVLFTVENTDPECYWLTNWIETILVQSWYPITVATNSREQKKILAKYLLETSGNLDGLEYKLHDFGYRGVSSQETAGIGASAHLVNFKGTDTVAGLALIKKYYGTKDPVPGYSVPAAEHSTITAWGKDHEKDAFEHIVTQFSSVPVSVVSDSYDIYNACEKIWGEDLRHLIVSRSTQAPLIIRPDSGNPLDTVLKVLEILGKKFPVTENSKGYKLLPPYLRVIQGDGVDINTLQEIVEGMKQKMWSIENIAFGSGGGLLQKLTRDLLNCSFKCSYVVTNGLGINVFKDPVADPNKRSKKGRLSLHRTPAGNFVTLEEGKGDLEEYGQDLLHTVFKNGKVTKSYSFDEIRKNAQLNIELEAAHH
Sequence of NAMPT (P43490 whole entry): as above

| SMILES | IC50 [1] | IC50 (NAMPT) | IC50 (PC3 cells) |
| --- | --- | --- | --- |
| CC(C)CC(=O)N1CCC(c2ccc(C(=O)NCc3ccn4ccnc4c3)cc2)C1 (stereo not drawn) [Example 601, N-(imidazo[1,2-a]pyridin-7-ylmethyl)-4-[1-(3-methylbutanoyl)pyrrolidin-3-yl]benzamide] | 712 nM | 0.682 nM | 56.7 nM |
| O=C(CC1CCCC1)Nc1ccc(NC(=O)NCc2cn3ccnc3cn2)cc1 [Example 681, 2-cyclopentyl-N-(4-{[(imidazo[1,2-a]pyrazin-6-ylmethyl)carbamoyl]amino}phenyl)acetamide] | 27.6 nM | 2 nM | 145 nM |
| O=C(CCC1CCCC1)Nc1ccc(NC(=O)NCc2ccn3ccnc3c2)cc1 [Example 281, 3-cyclopentyl-N-(4-{[(imidazo[1,2-a]pyridin-7-ylmethyl)carbamoyl]amino}phenyl)propanamide] | 5.5 nM | 0.214 nM | 24.8 nM |
| O=C(NCc1ccn2ccnc2c1)c1ccc(C2CN(C(=O)CC3CC3)C2)cc1 [Example 548, 4-[1-(cyclopropylacetyl)azetidin-3-yl]-N-(imidazo[1,2-a]pyridin-7-ylmethyl)benzamide] | 397 nM | 0.471 nM | 74.5 nM |
| O=C(NCc1ccc2nccn2c1)c1cnc(N(C[C@H]2CCCO2)C(=O)C2CCOC2)s1 (stereo partly drawn) [Example 146, N-(imidazo[1,2-a]pyridin-6-ylmethyl)-2-{(tetrahydrofuran-3-ylcarbonyl)[(2R)-tetrahydrofuran-2-ylmethyl]amino}-1,3-thiazole-5-carboxamide] | 261 nM | 0.403 nM | 7.69 nM |
| O=C(NCc1ccc2nccn2c1)c1cnc(N2CCC(c3ccccc3)C2)s1 (stereo not drawn) [Example 86, N-(imidazo[1,2-a]pyridin-6-ylmethyl)-2-(3-phenylpyrrolidin-1-yl)-1,3-thiazole-5-carboxamide] | 2040 nM | 11.9 nM | 5720 nM |
| O=C(NCc1ccn2ccnc2c1)c1ccc(C2CCN(C(=O)C3CCCCC3)C2)cc1 (stereo not drawn) [Example 610, 4-[1-(cyclohexylcarbonyl)pyrrolidin-3-yl]-N-(imidazo[1,2-a]pyridin-7-ylmethyl)benzamide] | 751 nM | 0.762 nM | 74.4 nM |
| O=C(NCc1ccn2ccnc2c1)c1ccc(C2CCN(C(=O)CCC(F)(F)F)C2)s1 (stereo not drawn) [Example 796, N-(imidazo[1,2-a]pyridin-7-ylmethyl)-5-[1-(4,4,4-trifluorobutanoyl)pyrrolidin-3-yl]thiophene-2-carboxamide] | 91.7 nM | 0.49 nM | 4.65 nM |
| O=C(NCc1cn2ccnc2cn1)c1ccc(C2CCN(C(=O)c3ccccc3F)CC2)cc1 [Example 826, 4-[1-(2-fluorobenzoyl)piperidin-4-yl]-N-(imidazo[1,2-a]pyrazin-6-ylmethyl)benzamide] | 7.79 nM | 0.897 nM | 6.79 nM |
| O=C(NCc1ccn2ccnc2c1)c1ccc(C2CN(C(=O)c3ccncc3)C2)cc1 [Example 658, N-(imidazo[1,2-a]pyridin-7-ylmethyl)-4-[1-(pyridin-4-ylcarbonyl)azetidin-3-yl]benzamide] | 137 nM | 0.76 nM | 60.8 nM |
| CC(C)(C)OC(=O)N1CCC(c2ccc(NC(=O)Nc3ccc4nccn4c3)cc2)CC1 [Example 89, tert-butyl 4-{4-[(imidazo[1,2-a]pyridin-6-ylcarbamoyl)amino]phenyl}piperidine-1-carboxylate] | 667 nM | 0.383 nM | 113 nM |
| O=C(NCc1ccn2ccnc2c1)c1ccc(C2CCN(C(=O)Cc3ccccc3)C2)cc1 (stereo not drawn) [Example 731, N-(imidazo[1,2-a]pyridin-7-ylmethyl)-4-[1-(phenylacetyl)pyrrolidin-3-yl]benzamide] | 223 nM | 0.391 nM | 50 nM |
| CC(C)(O)Cn1cc(-c2ncc(C(=O)NCc3ccn4ccnc4c3)s2)cn1 [Example 204, 2-[1-(2-hydroxy-2-methylpropyl)-1H-pyrazol-4-yl]-N-(imidazo[1,2-a]pyridin-7-ylmethyl)-1,3-thiazole-5-carboxamide] | 4830 nM | 0.773 nM | 1620 nM |
| O=C(NCc1ccn2ccnc2c1)c1ccc(C2CCN(C(=O)c3ccccc3)CC2)cc1 [Example 437, 4-(1-benzoylpiperidin-4-yl)-N-(imidazo[1,2-a]pyridin-7-ylmethyl)benzamide] | 29.1 nM | 0.169 nM | 7.02 nM |
| CC1(C(=O)N2CCC(c3ccc(C(=O)NCc4ccn5ccnc5c4)cc3)CC2)COC1 [Example 512, N-(imidazo[1,2-a]pyridin-7-ylmethyl)-4-{1-[(3-methyloxetan-3-yl)carbonyl]piperidin-4-yl}benzamide] | 631 nM | 0.209 nM | 17.9 nM |
| O=C(CC1CCCC1)Nc1ccc(NC(=O)NCc2ccc3nccn3c2)cc1 [Example 60, 2-cyclopentyl-N-(4-{[(imidazo[1,2-a]pyridin-6-ylmethyl)carbamoyl]amino}phenyl)acetamide] | 8.61 nM | 1.49 nM | 9.58 nM |
| O=C(NCc1ccn2ccnc2c1)c1ccc(C2CCN(C(=O)c3ccccc3C(F)(F)F)CC2)cc1 [Example 708, N-(imidazo[1,2-a]pyridin-7-ylmethyl)-4-{1-[2-(trifluoromethyl)benzoyl]piperidin-4-yl}benzamide] | 60 nM | 0.9 nM | 5.97 nM |
| COCC(C)C(=O)N1CC[C@H](Oc2ccc(C(=O)NCc3ccn4ccnc4c3)cc2)C1 (stereo partly drawn) [Example 349, N-(imidazo[1,2-a]pyridin-7-ylmethyl)-4-{[(3S)-1-(3-methoxy-2-methylpropanoyl)pyrrolidin-3-yl]oxy}benzamide] | 4110 nM | 0.736 nM | 5510 nM |
| CC(C)C(=O)N1CCC(Oc2ccc(C(=O)NCc3ccn4ccnc4c3)cc2)CC1 [Example 412, N-(imidazo[1,2-a]pyridin-7-ylmethyl)-4-{[1-(2-methylpropanoyl)piperidin-4-yl]oxy}benzamide] | 1250 nM | 0.424 nM | 978 nM |
| CC1(Cn2cc(-c3ccc(C(=O)NCc4ccc5ncnn5c4)o3)cn2)CCOCC1 [Example 822, 5-{1-[(4-methyltetrahydro-2H-pyran-4-yl)methyl]-1H-pyrazol-4-yl}-N-([1,2,4]triazolo[1,5-a]pyridin-6-ylmethyl)furan-2-carboxamide] | 104 nM | 3.46 nM | 71.1 nM |
| O=C(NCc1ccn2ccnc2c1)c1ccc(C2CCN(C(=O)c3ccsc3)C2)cc1 (stereo not drawn) [Example 617, N-(imidazo[1,2-a]pyridin-7-ylmethyl)-4-[1-(thiophen-3-ylcarbonyl)pyrrolidin-3-yl]benzamide] | 164 nM | 0.645 nM | 82.6 nM |
| Cc1noc(C)c1CCC(=O)N(CC1CCCO1)c1ncc(C(=O)NCc2ccc3nccn3c2)s1 (stereo not drawn) [Example 129, 2-{[3-(3,5-dimethyl-1,2-oxazol-4-yl)propanoyl](tetrahydrofuran-2-ylmethyl)amino}-N-(imidazo[1,2-a]pyridin-6-ylmethyl)-1,3-thiazole-5-carboxamide] | 11.6 nM | 0.634 nM | 2.74 nM |
| CC(C)Cn1cc(-c2ccc(NC(=O)Nc3ccc4nccn4c3)cc2)cn1 [Example 51, 1-imidazo[1,2-a]pyridin-6-yl-3-{4-[1-(2-methylpropyl)-1H-pyrazol-4-yl]phenyl}urea] | 264 nM | 0.524 nM | 83 nM |
| CC(C)(C)OC(=O)N1CC(Oc2ccc(C(=O)NCc3ccn4ccnc4c3)cc2)C1 [Example 474, tert-butyl 3-{4-[(imidazo[1,2-a]pyridin-7-ylmethyl)carbamoyl]phenoxyl}azetidine-1-carboxylate] | 1980 nM | 0.362 nM | 879 nM |
| O=C(NCc1ccn2ccnc2c1)Nc1ccc(Oc2ccccc2)cc1 [Example 496, 1-(imidazo[1,2-a]pyridin-7-ylmethyl)-3-(4-phenoxyphenyl)urea] | 199 nM | 1.14 nM | 7140 nM |
| CC(C)(C)OC(=O)N1CCC(Oc2ccc(C(=O)NCc3ccn4ccnc4c3)cc2)CC1 [Example 365, tert-butyl 4-{4-[(imidazo[1,2-a]pyridin-7-ylmethyl)carbamoyl]phenoxy}piperidine-1-carboxylate] | 1340 nM | 0.171 nM | 332 nM |
| CC(C)[C@@H]1COC(=O)N1c1ccc(C(=O)NCc2ccn3ccnc3c2)s1 [Example 250, N-(imidazo[1,2-a]pyridin-7-ylmethyl)-5-[(4R)-2-oxo-4-(propan-2-yl)-1,3-oxazolidin-3-yl]thiophene-2-carboxamide] | 20.5 nM | 0.23 nM | 0.675 nM |
| O=C(NCc1ccn2ccnc2c1)c1cnc(N2CCN(C(=O)c3ccccc3)CC2)s1 [Example 355, 2-(4-benzoylpiperazin-1-yl)-N-(imidazo[1,2-a]pyridin-7-ylmethyl)-1,3-thiazole-5-carboxamide] | 831 nM | 0.169 nM | 1940 nM |
| O=C(NCc1ccn2ccnc2c1)Nc1ccc(C2CCN(C(=O)[C@H]3CCOC3)CC2)cc1 [Example 286, 1-(imidazo[1,2-a]pyridin-7-ylmethyl)-3-(4-{1-[(3S)-tetrahydrofuran-3-ylcarbonyl]piperidin-4-yl}phenyl)urea] | 120 nM | 0.412 nM | 19.4 nM |
